Our source for the IC50 values is patent US9416142B2, “Griseofulvin derivatives” (PIERRE FABRE MEDICAMENT, priority 2012, dated 2016).

Common to all, as to type: cell-based
The subject of test [1] is HCC1937 (primary ductal breast carcinoma cell line). Description: Cytotoxic activity, cell proliferation (ATPLite) on HCC1937 line. As to conditions: Homo sapiens, 48 hours after treatment. How it is done:
(§1) Culture of Lines and Measurement of Cell Viability:
(§2) The lines NIE115 (ATCC, CRL2263), MDA-MB-231 (ATCC, HTB26) and HSC-1 (Health Science Research Resources Bank, JCRB1015) were cultured in DMEM medium (Dulbecco's modified Eagle medium) supplemented with 2 mM of L-Glutamine (Sigma, G7513) and 10% foetal calf serum (Hyclone, SH30109.03) or 20% for the HSC-1 cells. The HCC-1937 (ATCC, CRL2336) and A549 (ATCC, CCL185) lines were cultured in RPMI medium (Roswell Park Memorial Institute medium) supplemented with 10% foetal calf serum and 2 mM of L-Glutamine. Finally, the SCC114 line (DSMZ, ACC662) was cultured in MEM medium (Minimum Essential Medium Eagle) supplemented with 10% foetal calf serum and 2 mM of L-Glutamine. Initially, in 96-well plates (Perkin Elmer, 6005668), the cells were seeded in their respective culture media with 750 cells per well for NIE115; 1000 cells per well for SCC114 and A549; 2000 cells per well for HCC-1937 and HSC-1; 2500 cells per well for MDA-MB-231. Cascade dilution of each compound was performed in dimethylsulfoxide (DMSO) (Sigma, D8418) using 10 mM stock solutions in 100% DMSO. Each of the dilutions was added to the cells 24 hours after seeding. Under these conditions the final solvent concentration was 0.1% DMSO. Reading of cell proliferation was conducted 72 hours after addition of products with the ATPLite kit (Perkin Elmer, 6016947) and following the manufacturer's directions except in the case of the HCC-1937 line for which this reading was carried out 48 hours after treatment. Analysis of proliferation results was performed by comparing with conditions in which solely the vehicle was added to the cells. The dose-response curves obtained were analysed using Prism 4.03 software (GraphPad Software Inc.) to determine the concentration of each compound allowing 50% inhibition of cell proliferation (IC50). As examples, the cytotoxic properties of some compounds of the invention evaluated on the lines A549 (lung cancer cell line), MDA-MB-231 (mammary adenocarcinoma cell line), NIE115 (mouse brain neuroblastoma cell line), HCC-1937 1 (primary ductal breast carcinoma cell line), HSC-1 (cutaneous squamous carcinoma cell line) and SCC114 (oral squamous carcinoma cell line) are reported in Table 1, as compared with griseofulvin used as control product. The concentration values are expressed in micromolar units (μM).
The activity of the compounds of the invention on the […] line was compared with that of known cytotoxics (Epotilone B and Vinflunine).
Background: ATP-based viability assays read luminescence as a measure of living cells.

Test [2] concerns N1E-115 (mouse brain neuroblastoma cell line). Description: Cytotoxic activity, cell proliferation (ATPLite) on N1E-115 line. The note with it: 50% inhibition of cell proliferation, 72 hours after addition. The method, then:
as §1
as §2, with “Analysis of proliferation results was performed by comparing with conditions in which solely the vehicle was added to the cells. The dose-response curves obtained were analysed using Prism 4.03 software (GraphPad Software Inc.) to determine the concentration of each compound allowing 50% inhibition of cell proliferation (IC50).” left out, “The concentration values are expressed in micromolar units (μM).” left out

For test [3], the system named is MDA-MB-231 (mammary adenocarcinoma cell line). Description: Cytotoxic activity, cell proliferation (ATPLite) on MDA-MB-231 line. As to conditions: Homo sapiens, 50% inhibition of cell proliferation, 72 hours after addition. The method, then: as §1
as §2, with “Analysis of proliferation results was performed by comparing with conditions in which solely the vehicle was added to the cells. The dose-response curves obtained were analysed using Prism 4.03 software (GraphPad Software Inc.) to determine the concentration of each compound allowing 50% inhibition of cell proliferation (IC50).” left out, “The concentration values are expressed in micromolar units (μM).” left out

The test system of test [4] is A549 (lung cancer cell line). Briefly: Cytotoxic activity, cell proliferation (ATPLite) on A549 line. As to conditions: Homo sapiens, 50% inhibition of cell proliferation, 72 hours after addition. The method, then: as §1
as §2, with “Analysis of proliferation results was performed by comparing with conditions in which solely the vehicle was added to the cells. The dose-response curves obtained were analysed using Prism 4.03 software (GraphPad Software Inc.) to determine the concentration of each compound allowing 50% inhibition of cell proliferation (IC50).” left out, “The concentration values are expressed in micromolar units (μM).” left out

Test [5] has as its system SCC114 (oral squamous carcinoma cell line). Briefly: Cytotoxic activity, cell proliferation (ATPLite) on SCC114 line. The note with it: 50% inhibition of cell proliferation, 72 hours after addition. How it is done: as §1, §2
The subject of test [6] is HSC-1 (cutaneous squamous carcinoma cell line). Briefly: Cytotoxic activity, cell proliferation (ATPLite) on HSC-1 line. The note with it: 50% inhibition of cell proliferation, 72 hours after addition. How it is done:
as §1
The lines NIE115 (ATCC, CRL2263), MDA-MB-231 (ATCC, HTB26) and HSC-1 (Health Science Research Resources Bank, JCRB1015) were cultured in DMEM medium (Dulbecco's modified Eagle medium) supplemented with 2 mM of L-Glutamine (Sigma, G7513) and 10% foetal calf serum (Hyclone, SH30109.03) or 20% for the HSC-1 cells. The HCC-1937 (ATCC, CRL2336) and A549 (ATCC, CCL185) lines were cultured in RPMI medium (Roswell Park Memorial Institute medium) supplemented with 10% foetal calf serum and 2 mM of L-Glutamine. […] Reading of cell proliferation was conducted 72 hours after addition of products with the ATPLite kit (Perkin Elmer, 6016947) and following the manufacturer's directions except in the case of the HCC-1937 line for which this reading was carried out 48 hours after treatment. […] As examples, the cytotoxic properties of some compounds of the invention evaluated on the lines A549 (lung cancer cell line), MDA-MB-231 (mammary adenocarcinoma cell line), NIE115 (mouse brain neuroblastoma cell line), HCC-1937 1 (primary ductal breast carcinoma cell line), HSC-1 (cutaneous squamous carcinoma cell line) and SCC114 (oral squamous carcinoma cell line) are reported in Table 1, as compared with griseofulvin used as control product. […]

Where [7] appears, read: Table 2, comparison with known cytotoxics and 2′-SR7 compounds.
[8] abbreviates: Table 1, 50% inhibition of cell proliferation.

Consider `COc1cc(OC)c2c(c1Cl)O[C@]1(C2=O)C(SCCN(C)C)=CC(=O)C[C@H]1C` (racemic) [B, reference compound], for which the half-maximal inhibitory concentration (IC50) (commonly the concentration needed to halve the response being measured) in test [1] (setting [7]) is over 10 µM.
Consider `COc1cc(OC)c2c(c1Cl)OC1(C2=O)C(SCc2ccccc2)=CC(=O)C[C@H]1C` (some centres unmarked) [A, reference compound], for which the IC50 in test [1] (setting [7]) was over 10 µM.
As for `COc1cc(OC)c2c(c1Cl)O[C@@]1(C=C([S+]([O-])c3ccccc3)C(=O)C[C@H]1C)C2=O` (some centres unmarked) [Compound 95], the IC50 in test [2] was 1 µM; in test [3], 0.54 µM; in test [4], 0.25 µM; in test [5] it was 0.25 µM; in test [1] (setting [8]), 0.43 µM.
The molecule `COc1cc(OC)c2c(c1Cl)O[C@@]1(C=C(S(=O)(=O)Cc3ccccc3)C(=O)C[C@H]1C)C2=O` [Compound 96, (1′S,6′R)-3′-(benzylsulfonyl)-7-chloro-4,6-dimethoxy-6′-methyl-3H-spiro[benzofuran-2,1′-cyclohex[2]ene]-3,4′-dione] displayed a half-inhibitory concentration (IC50) in test [1] (setting [8]) of 0.92 µM.
In turn, `COc1cc(OC)c2c(c1Cl)O[C@@]1(C=C([S+]([O-])Cc3ccccc3)C(=O)C[C@H]1C)C2=O` (stereo partly drawn) [Compound 97, (1′S,6′R)-3′-(benzylsulfinyl)-7-chloro-4,6-dimethoxy-6′-methyl-3H-spiro[benzofuran-2,1′-cyclohex[2]ene]-3,4′-dione] showed an IC50 in test [5] of 0.021 µM.
`COc1cc(OC)c2c(c1Cl)O[C@@]1(C=C(S(=O)(=O)c3ccccc3)C(=O)C[C@H]1C)C2=O` [Compound 98, (1′S,6′R)-7-chloro-4,6-dimethoxy-6′-methyl-3′-(phenylsulfonyl)-3H-spiro[benzofuran-2,1′-cyclohex[2]ene]-3,4′-dione]: the values for the IC50 in test [5] and in test [1] (setting [8]) were 0.41 µM and 0.7 µM, respectively.
Turning to `COc1cc(OC)c2c(c1Cl)O[C@]1(C2=O)C(S(=O)(=O)Cc2ccccc2)=CC(=O)C[C@H]1C` [Compound 145, (1′R,6′R)-2′-(benzylsulfonyl)-7-chloro-4,6-dimethoxy-6′-methyl-3H-spiro[benzofuran-2,1′-cyclohex[2]ene]-3,4′-dione], the half-maximal inhibitory concentration (IC50) in test [2] was determined as 3 µM; in test [3], 2 µM; in test [4], 1.5 µM; in test [5] it was 0.385 µM; in test [1] (setting [8]), 1.4 µM.
`COc1cc(OC)c2c(c1Cl)O[C@]1(C2=O)C(S(=O)(=O)CCN(C)C)=CC(=O)C[C@H]1C` [Compound 146, (1′R,6′R)-7-chloro-2′-(2-(dimethylamino)ethylsulfonyl)-4,6-dimethoxy-6′-methyl-3H-spiro[benzofuran-2,1′-cyclohex[2]ene]-3,4′-dione] returned a concentration for half-maximal inhibition (IC50) in test [1] (setting [8]) of 5.9 µM.
Same read-out and setting: for `COc1cc(OC)c2c(c1Cl)O[C@]1(C2=O)C(S(=O)(=O)c2ccccc2)=CC(=O)C[C@H]1C` [Compound 147, (1′R,6′R)-7-chloro-4,6-dimethoxy-6′-methyl-2′-(phenylsulfonyl)-3H-spiro[benzofuran-2,1′-cyclohex[2]ene]-3,4′-dione] the value was 1.6 µM.
In turn, `C/C(=C\c1csc(C)n1)[C@@H]1C[C@@H]2O[C@]2(C)CCC[C@H](C)[C@H](O)[C@@H](C)C(=O)C(C)(C)[C@@H](O)CC(=O)O1` [Epotilone B, reference compound] had an IC50 in test [1] (setting [7]) of over 10 µM.
`COC1=CC(=O)C[C@@H](C)[C@]12Oc1c(Cl)c(OC)cc(OC)c1C2=O` [Griseofulvin]: the half-maximal inhibitory concentration (IC50) in test [2] is over 10 µM; in test [3] it was over 10 µM; in test [4], over 10 µM; in test [5], 6.4 µM; in test [1] (setting [8]), over 10 µM; in test [6], over 10 µM.
Consider `CC[C@]12C=CCN3CC[C@@]4(c5cc([C@@]6(C(=O)OC)C[C@@H]7C[C@@H](C(C)(F)F)CN(Cc8c6[nH]c6ccccc86)C7)c(OC)cc5N(C)[C@H]4[C@@](O)(C(=O)OC)[C@@H]1OC(C)=O)[C@@H]32` [Vinflunine, reference compound], for which the IC50 in test [1] (setting [7]) was over 10 µM.
